Measurements published in the Kinase Knowledgebase extract (Sharma et al. 2016).

Target: EGFR (human) (UniProt P00533)
Settings: for inhibition: nci-h1975, concentration not given here

EGFR (human), sequence (P00533 whole entry, looked up): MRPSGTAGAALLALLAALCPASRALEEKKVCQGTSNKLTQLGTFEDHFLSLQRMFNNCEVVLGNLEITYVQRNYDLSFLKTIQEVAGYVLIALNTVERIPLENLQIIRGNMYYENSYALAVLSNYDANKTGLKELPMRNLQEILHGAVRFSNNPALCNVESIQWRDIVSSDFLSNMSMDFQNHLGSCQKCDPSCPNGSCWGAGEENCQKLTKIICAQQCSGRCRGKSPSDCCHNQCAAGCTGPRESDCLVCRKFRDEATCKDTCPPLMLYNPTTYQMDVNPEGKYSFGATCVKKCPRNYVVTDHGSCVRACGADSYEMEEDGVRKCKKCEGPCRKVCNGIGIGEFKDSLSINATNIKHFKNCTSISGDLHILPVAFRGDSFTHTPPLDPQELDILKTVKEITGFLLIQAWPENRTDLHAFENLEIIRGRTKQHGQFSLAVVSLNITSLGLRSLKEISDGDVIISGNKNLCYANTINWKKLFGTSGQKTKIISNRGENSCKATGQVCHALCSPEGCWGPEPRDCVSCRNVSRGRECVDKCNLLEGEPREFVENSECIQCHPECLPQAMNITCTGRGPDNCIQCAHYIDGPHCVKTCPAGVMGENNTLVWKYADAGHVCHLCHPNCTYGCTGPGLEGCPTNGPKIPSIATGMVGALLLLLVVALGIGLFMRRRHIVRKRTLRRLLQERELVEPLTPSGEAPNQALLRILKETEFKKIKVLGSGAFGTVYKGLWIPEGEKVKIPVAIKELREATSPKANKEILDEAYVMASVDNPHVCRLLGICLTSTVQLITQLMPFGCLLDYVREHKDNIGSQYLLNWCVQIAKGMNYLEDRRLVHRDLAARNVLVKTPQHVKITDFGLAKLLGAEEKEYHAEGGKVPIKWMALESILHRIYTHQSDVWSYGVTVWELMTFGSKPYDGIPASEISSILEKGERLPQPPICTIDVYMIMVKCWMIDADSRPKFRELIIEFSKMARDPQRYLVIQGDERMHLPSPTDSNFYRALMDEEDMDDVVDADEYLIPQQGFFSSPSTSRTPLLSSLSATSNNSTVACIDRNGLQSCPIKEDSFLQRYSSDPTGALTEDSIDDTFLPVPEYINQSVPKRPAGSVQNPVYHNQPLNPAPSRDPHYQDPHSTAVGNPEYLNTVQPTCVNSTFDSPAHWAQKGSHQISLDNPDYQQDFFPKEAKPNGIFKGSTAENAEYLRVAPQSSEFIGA

Row | Compound | inhibition | IC50 (nci-h1975)
1 | NC(=O)Nc1sc(-c2ccc(F)cc2)cc1C(N)=O | 35% | 
2 | Cn1cc(C2=C(c3ccc(Cl)cc3Cl)C(=O)NC2=O)c2ccccc21 | 37% | 
3 | CC(C)(C)c1nc2c3ccc(F)cc3c3c(=O)[nH]ccc3c2[nH]1 | < 25% | 
4 | OCCC#Cc1nc(-c2ccc(F)cc2)c(-c2ccncc2)n1CCCc1ccccc1 | < 25% | 
5 | CC(Nc1ncnc2[nH]c(-c3ccc(O)cc3)cc12)c1ccccc1 (stereo not given) |  | 8 µM
6 | Cc1ccc(NC(=O)c2cccc(N(C)C)c2)cc1NC(=O)c1ccc(O)cc1 | < 25% | 
7 | COc1cc2ncnc(Nc3ccc(OCc4ccccc4)cc3)c2cc1OC | < 25% | 
8 | O=C1NC(=O)C(c2ccccc2[N+](=O)[O-])=C1Nc1ccc(O)c(Cl)c1 | < 25% | 
9 | c1ccc(-c2n[nH]cc2-c2ccnc3ccccc23)nc1 | < 25% | 
10 | O=c1ncn2nc(Sc3ccc(F)cc3F)ccc2c1-c1c(Cl)cccc1Cl | < 25% | 
11 | CC(C)[C@H](CO)Nc1nc(Nc2ccc(C(=O)O)c(Cl)c2)c2ncn(C(C)C)c2n1 | < 25% | 
12 | CC(C)(C)c1cnc(CSc2cnc(NC(=O)C3CCNCC3)s2)o1 | 63% | 
13 | CC(C)(C)n1nc(-c2cccc3ccccc23)c2c(N)ncnc21 | 60% | 
14 | Cc1cc(C)c(/C=C2\C(=O)Nc3ccc(Cl)cc32)[nH]1 | < 25% | 

Continued, values first:

Row | inhibition | IC50 (nci-h1975) | Compound
15 | 76% |  | O=C(Nc1cc(C(F)(F)F)cc(C(F)(F)F)c1)c1cc(Cl)ccc1O
16 | < 25% |  | COc1cccc(-c2cc(=O)c3ccccc3o2)c1N
17 | < 25% |  | Cc1ccc(NC(=O)c2ccc(CN3CCN(C)CC3)cc2)cc1Nc1nccc(-c2cccnc2)n1
18 | < 25% |  | O=C1Nc2ccc(I)cc2/C1=C\c1cc(Br)c(O)c(Br)c1
19 | 55% |  | Cc1cc(Nc2ncc3cc(-c4c(Cl)cccc4Cl)c(=O)n(C)c3n2)ccc1F
20 | 34% |  | Cc1cc(Nc2cc(N3CCN(C)CC3)nc(Sc3ccc(NC(=O)C4CC4)cc3)n2)[nH]n1
